This is an account of results in patent US7122326B2 (Universite Louis Pasteur, priority 2001, dated 2006).

pEC50: −log10 of the molar value. Entries after “also recorded” stand apart in the source; their conditions may differ. Like-named read-outs stand apart in the source and are kept apart here.

Test [1] has as its system xanthurenic acid binding site(s). The test is described as follows: [3H]-XA binding to synaptic membranes, without ions. More on the design: species or system rat. Conditions: for [^3H]-XA binding displacement, screening: screening at 200 μM concentration.
The test system of a further test is XA transport system. The test is described as follows: XA transport in differentiated NCB-20 cells. In kind it is cell-based. The protocol:
The cell culture was prepared by using a culture dish of NCB-20 cells at 80% confluence. The culture medium was removed and replaced with 10 ml of DMEM supplemented with 10% FCS. Cells were then detached and suspended by repeated passage of the medium through a 2 mm gauge needle. Cells were then counted in a hemocytometer. The final suspension was adjusted to a cell density of 3.10^4 cells/ml in DMEM medium supplemented with 10% FCS and 1 mM cAMP. Petri dishes were seeded with 2 ml of this suspension and incubated at 37° C. in a moisture-saturated CO2 atmosphere. Cells were used four days after inoculation.
The culture medium of 4-day NCB-20 cell cultures differentiated in cAMP was replaced by one of the buffer solutions described hereinabove (Krebs with or without Na^+, to respectively evaluate Na^+-dependent active transport and passive transport, which occurs mainly through diffusion) according to the type of experiment planned. Culture dishes were placed in a water bath at 37° C. for 10 minutes. The buffer was then replaced by the same buffer solution containing [^3H]-XA and XA at concentrations ranging from […]. [^3H]-XA was present at very low concentration and served only as a tracer of the cold (non-radiolabelled) XA. After 1 minute of incubation, the solutions were aspirated and the cells washed three times for 10 seconds with 1 ml of the same buffer (Krebs with or without Na^+), kept on ice. Active transport requires energy (ATP) and is markedly slowed at temperatures below 37° C. The washed cell layer was frozen in dishes then, the next day, distilled water was added to obtain a solution of cellular debris containing the intracellular radiolabel ([^3H]-XA). Freezing facilitated homogenization by repeated passage of the solution through a pipette. A 900 μl aliquot was added to scintillation fluid (Rotiszint®, 4 ml). The remainder of the solution was sampled to assay protein by the BCA method (Uptima). The radioactivity measured in the scintillation counter was converted by means of a suitable calibration curve into picomoles of XA taken up by the cells per mg of protein.
For each incubation time, transport was measured on nine dishes of NCB-20 cells with Na^+ and without Na^+. Ten different time points were studied: 0-10-30 seconds and 1, 2, 3, 5, 8, 10, 12 minutes. Four different experiments were carried out.
For each XA concentration, XA transport was measured on nine dishes of NCB-20 cells with Na^+ and nine dishes without Na^+. Seven different concentrations were tested: 1-5-12.5-25-50-100-200 μM. Four independent experiments were carried out.
Four milliliters of scintillator were added to the tubes containing 900 μl of the cell suspension obtained. The control tube contained 900 μl of doubly-distilled water, and the tubes used to measure specific activity contained 10 μl of the radioactive solutions used as reagent during the experiment and 890 μl of doubly-distilled water. The tubes were closed, vortexed and left overnight at 4° C. before being counted in the scintillation counter. This count measures intracellular radioactivity which is directly proportional to the quantity of XA that entered the cell through passive or active transport. To calculate the amount of active transport, passive transport (Krebs without Na^+) is simply subtracted from total transport (Krebs with Na^+).
Other endogenous molecules which might be transported by the XA transporter were tested. […] The results are shown in the histogram in FIG. 34 as the percentage entering the cells relative to transport in the presence of radiolabelled XA alone (=100%).

The test system of the next test is dopaminergic neurons. The test is described as follows: Residual dopamine content after 6-OHDA lesion. In kind it is in vivo, rat.
For the next test, the system named is XA release in the PFC. Briefly: XA release in prefrontal cortex, in vivo microdialysis. More on the design: species or system rat. Here is the method: Male Wistar rats weighing 350–400 g were used for the experiments. Animals were housed individually in plastic cages with a light/dark cycle of 7 a.m./7 p.m. and 7 p.m./7 a.m. Animals had access to food and water ad libitum. Animal experiments were conducted in strict accordance with the requirements of the European Directive of 24 Nov. 1986 (86/609/EEC).
The experiments were carried out using an L-shaped cannula with a 4 mm tip. A polycarbonate-polyether dialysis membrane (500 μm) with a 20 Kda cutoff was used. The dialysis membrane was inserted in the prefrontal cortex (PFC) while one of the tips of the bipolar stimulation electrode was implanted in the PFC and the other in the VTA. The procedure was performed under ketamine anesthesia.
The experiments were carried out in conscious animals, 24 to 72 hours after the surgery. The perfusion medium had the following composition: 147 mM NaCl, 1.2 mM CaCl2, 1.2 mM MgCl2, and 4.0 mM KCl, pH 6.5. In the case of stimulations at high potassium concentrations, sodium ion concentrations were lowered to the same value. In the case of stimulations in the absence of calcium ions, 2.0 mM EGTA was added to the dialysis medium. Dialysates were collected at a rate of 2 μl/min, every 5 minutes, and immediately stored in liquid nitrogen up to analysis.
These two compounds were quantitatively determined by HPLC chromatography with electrochemical detection. The chromatographic system consisted of a 25 cm×4.6 mm Hypersyl C18 column, maintained at constant temperature. The mobile phase was 0.05 M NaH2PO4 buffer+0.1 mM EDTA and 6% methanol. Peaks were identified by comparison with the retention times measured on calibration standard solutions.
The VTA was stimulated for a period of 10 minutes, with bursts of thirty 0.5-msec pulses for 100 millisec, intensity 100 or 200 μA and at a frequency of 25 Hz.

For another test, the system named is rat. The test is described as follows: Rotations in rats with unilateral 6-OHDA lesions. In kind it is in vivo. The conditions noted are these: 6-OHDA-lesioned rats, four weeks after lesion; apomorphine s.c. (0.1 and 1.0 mg/kg).
The target of test [2] is xanthurenic acid binding site(s). The test is described as follows: [3H]-XA binding to synaptic membranes in the presence of copper ions. The conditions noted are these: read-out: EC50 (50% effective concentration) on XA binding; Tris maleate pH 6.5, room temperature, 400 nM [^3H]-XA (+20 μM xanthurenic acid) (FIG. 17). More on the design: species or system rat.
For test [3] the target is unchanged. The test is described as follows: Effect of ions on xanthurenic acid binding to synaptic membranes. More on the design: species or system rat. Conditions: read-out: EC50 of ions on xanthurenic acid binding.
Where [4] appears, read: unilateral 6-OHDA lesion of VTA and SNc, ±SEM (n=3).

Regarding `Nc1c(O)cccc1C(=O)CC(N)C(=O)O` (racemic) [3OH-D,L-kynurenin], in test [1], the “[^3H]-XA binding displacement, screening” value is recorded as “None of these compounds caused significant displacement”.

`O=CC[C@@H](O)[C@H](O)[C@H](O)CO` [2-deoxyglucose]: the “decrease in XA transport” value with XA transport system (cellular energy production blocked (FIG. 34)) is listed as approximately 50%.

For the compound `Nc1c(O)cccc1C(=O)O` [3-hydroxyanthranilic acid], in test [1], the “[^3H]-XA binding displacement, screening” value is recorded as “None of these compounds caused significant displacement”.

Regarding `N[C@@H](Cc1c[nH]c2ccc(O)cc12)C(=O)O` [5-hydroxy-L-tryptophan], the “[^3H]-XA binding displacement, screening” value in test [1] is reported as “None of these compounds caused significant displacement”.

`Br.NCCc1cc(O)c(O)cc1O` [6-OHDA, 6-hydroxydopamine hydrobromide]: in the test with dopaminergic neurons (setting [4]), the “residual dopamine content, damaged VTA —SNc” value was 32±31 pmoles/g of wet tissue and the “residual dopamine content, damaged striatum” value was 261±123 pmoles/g of wet tissue. Besides, in the test with dopaminergic neurons (unilateral 6-OHDA lesion, p=0.0033), the “change of dopamine content, damaged versus intact striatum” value was −98%. The “change of dopamine content, damaged versus intact VTA —SNc” value in the test with dopaminergic neurons (unilateral 6-OHDA lesion, p=0.0157) is −95%.

For `[Cl-].[K+]` [KCl], the “XA release in the PFC extracellular medium, % of the baseline value” in the test with XA release in the PFC (100 mM KCl in the dialysis probe for 5 minutes, after 40 minutes) was 250%.

`Nc1ccccc1C(=O)C[C@H](N)C(=O)O` [L-kynurenin]: the “[^3H]-XA binding displacement, screening” value in test [1] was “None of these compounds caused significant displacement”.

Turning to `N[C@@H](Cc1c[nH]c2ccccc12)C(=O)O` [L-tryptophan], the “inhibition of cellular transport of XA” value in the test with XA transport system is “good inhibitors; also recorded: inhibit this transport”.

With `N[C@@H](Cc1ccc(O)cc1)C(=O)O` [L-tyrosine], the “inhibition of cellular transport of XA” value is given as “good inhibitors” with XA transport system (NCB-20 cells (FIG. 34)) and “inhibit this transport” with XA transport system (NCB-20 cells (FIG. 34), listed as tyrosine).

With `Nc1ncnc2nc[nH]c12` [adenine], in test [1], the “affinity for the xanthurenic acid site / inhibition of tritiated XA binding” value was “showed significant affinity for the xanthurenic acid site and inhibited the binding of tritiated XA”.

On to `Nc1ncnc2c1ncn2[C@@H]1O[C@H](COP(=O)(O)OP(=O)(O)O)[C@@H](O)[C@H]1O` [adenosine diphosphate], for which, in test [1], the “affinity for the xanthurenic acid site / inhibition of tritiated XA binding” value is “showed significant affinity for the xanthurenic acid site and inhibited the binding of tritiated XA”.

Turning to `Nc1ncnc2c1ncn2[C@@H]1O[C@H](COP(=O)(O)OP(=O)(O)OP(=O)(O)O)[C@@H](O)[C@H]1O` [adenosine triphosphate], the “affinity for the xanthurenic acid site / inhibition of tritiated XA binding” value in test [1] was “showed significant affinity for the xanthurenic acid site and inhibited the binding of tritiated XA”.

In the case of `Nc1ncnc2c1ncn2[C@@H]1O[C@H](CO)[C@@H](O)[C@H]1O` [adenosine], the “affinity for the xanthurenic acid site / inhibition of tritiated XA binding” value in test [1] is “showed significant affinity for the xanthurenic acid site and inhibited the binding of tritiated XA”.

Consider `CN1CCc2cccc3c2[C@H]1Cc1ccc(O)c(O)c1-3` [apomorphine], for which, in the test on rat, the “number of controlateral rotations” value worked out at 130±45 turns/15 minutes.

In the case of `[Cl][Cu][Cl]` [copper ions, CuCl2], the pEC50 in test [2] was 4.48; in test [3] (50 mM Tris maleate pH 6.5, 0° C., 200 nM [^3H]-XA (FIG. 14)) it was approximately 4.00.

Consider `O=C(O)c1cc(=O)c2ccccc2[nH]1` [kynurenic acid], for which, in the test on XA transport system (NCB-20 cells (FIG. 34)), the “inhibition of cellular transport of XA” value was “good inhibitors”. Besides, the “[^3H]-XA binding displacement, screening” value in test [1] is “no displacement of [^3H]-XA from its binding site(s) but rather a potentiation of this binding”.

In the case of `O=C(O)c1ccccn1` [picolinic acid], the “[^3H]-XA binding displacement, screening” value in test [1] was “None of these compounds caused significant displacement”.

For `NC1=N[C@H](O)[C@H]2[C@H]3O[C@]4(O)O[C@@H]([C@@H](O)[C@@]2(N1)[C@@H]4O)[C@]3(O)CO` [tetrodotoxin], in the test with XA release in the PFC (rat, in vivo), the “XA release in PFC induced by electrical stimulation of the VTA” value was “completely blocked”.

For `[Cl-].[Cl-].[Zn+2]` [zinc ions, ZnCl2], the “potentiation of XA transport” value in the test with XA transport system (ions present in the medium (FIG. 34)) was “highly significant potentiation”. Besides, the pEC50 in test [3] (pH 6.5) was approximately 3.30.

veratrine: the “XA release in the PFC, % of baseline” value in the test on XA release in the PFC (50 μM in the probe for 20 minutes, after 20 minutes) is listed as “approximately 600%”.
